These results are taken from publication PMC7346113, “Screening of Natural Stilbene Oligomers from Vitis vinifera for Anticancer Activity on Human Hepatocellular Carcinoma Cells” (Antioxidants, 2020).

What all share (type): cell-based, human
In assay [1] the test system is HH4. Nature of the assay: Cell viability, crystal violet assay, HH4 non-transformed hepatocytes. Particulars: Homo sapiens, Hepatocyte, mean ± standard error. An excerpt: (§1) The human hepatoma cell line HepG2 was obtained from the American Tissue Culture Collection (ATCC, Manassas, VA, USA). The human hepatoma cell line Hep3B was obtained from the European Collection of Authenticated Cell Cultures (ECACC, Porton Down, Salisbury, Wiltshire, UK). HH4 non-transformed human hepatocyte cell line (kindly provided by Dr. I. Fabregat, Molecular Oncology, Bellvitge Biomedical Research Institute, Spain) was established as described.
(§2) HepG2 and Hep3B cell lines were maintained in Eagle’s Minimum Essential Medium and HH4 cell line was grown in Ham´s F12 Nutrient Mixture (Sigma-Aldrich, St Louis, MO, USA). Both culture media were supplemented with 10% heat inactivated fetal bovine serum, 2 mM L-glutamine and antibiotics (0.1 mg/mL streptomycin and 100 U/mL penicillin) (Sigma-Aldrich, St Louis, MO, USA). Cell cultures were grown in an incubator at 37 °C with 5% CO2 atmosphere. After reaching approximately 80% of confluence, cells were detached in a solution of 0.1% trypsin and 0.04% EDTA and plated as required for further experiments.
(§3) Cell lines were seeded into 96-well plates at 5 × 10^3 (HepG2) and 3 × 10^3 (Hep3B and HH4) cells/well 24 h before treatment. Increasing concentrations of the monomer trans-resveratrol, the dimers ampelopsin A and trans-ε-viniferin and the tetramers isohopeaphenol, hopeaphenol, R2-viniferin and R-viniferin were then added and cells were incubated for 24, 48, and 72 h. Stilbenes were dissolved in dimethyl sulfoxide (DMSO), Sigma-Aldrich, St Louis, MO, USA) at a final concentration of 0.01%. The same amount of DMSO was added to control cells. After treatment, the cell viability was determined using the crystal violet assay. The absorbance was recorded at 590 nm in a Synergy HT microplate reader (BioTek, Winooski, VT, USA). Cell viability was calculated as the percentage of viable cells treated with stilbene versus untreated control cells using the following equation: Cell viability (%) = [OD (Treatment) − OD (Blank)]/[OD (Control) − OD (Blank)] × 100. The cytotoxic effect of stilbenes was determined by calculating IC50 values using non-linear regression analysis (GraphPad Prism 6, San Diego, CA, USA).
(§4) The statistical package SPSS 19.0 (SPSS Inc. Chicago, IL, USA) was used for data analysis. The results were expressed as mean ± standard error (SE) from at least three experiments. Statistical significance for the differences of the means was estimated by parametric Student’s t-test. Differences between means were considered statistically significant for p < 0.05. IC50 values were derived from fitting the data to a sigmoidal dose-response curve with a three-parameter logistic model using Graph Pad Prism 6.

The subject of assay [2] is Hep3B. Nature of the assay: Cell cycle analysis by flow cytometry (propidium iodide), Hep3B. Particulars: 10 µM; for Cell cycle G0/G1 (percentage of cells) / Cell cycle G2/M (percentage of cells) / Cell cycle S (percentage of cells) / SubG0 (percentage of total cells): mean ± SE. On the procedure: Exponentially growing cells were seeded in 6-wells plates (200,000 cells HepG2 and 180,000 cells Hep3B) 24 h before R2-viniferin treatment. On the day of treatment, the culture medium was replaced with culture medium containing R2-viniferin or vehicle solution (control).
After a treatment, cells were detached by trypsinization and fixed overnight at 4 °C in 70% ice-cold ethanol diluted in phosphate buffer saline (PBS). The ethanol was then discarded and the cells were washed with ice-cold PBS and finally stained with 25 μg/mL of propidium iodide (Sigma-Aldrich, St Louis, MO, USA) in the presence of 200 μg/mL ribonuclease A (Roche Biochemicals, Indianapolis, IN, USA) for 30 min at room temperature in the dark. Flow cytometry analysis (Beckman Coulter Gallios) was carried out from a total number of 10,000 events acquired in the General Research Services SGIker of the UPV/EHU. Analysis of the data was performed using Summit 4.3 software (Dako, Glostrup, Hovedstaden, Denmark).
A general note: Flow cytometry measures light scatter and fluorescence of single cells or particles in a stream.

Assay [3] concerns Hep3B. Nature of the assay: Cell viability, crystal violet assay, Hep3B. Particulars: mean ± standard error.
Source text: as §1, §2, §3, §4

Assay [4] concerns Bax and Bcl-2 expression in HepG2 cells. Nature of the assay: Western blot analysis of Bax and Bcl-2 expression. Particulars: 24 h. The method, then:
HepG2 cells were seeded in Petri dishes, incubated for 24 h and then treated with 5 and 10 µM R2-viniferin. Following 24 h of treatment, the cells were lysed in ice for 30 min with lysis buffer (20 mM HEPES pH 7.5, 1 mM NaF, 10 mM EGTA, 40 mM β-glycerophosphate, 1% NP-40, 2.5 mM MgCl2, 2 mM orthovanadate, and 1 mM DTT) to which 10 μL/mL of a protease inhibitor cocktail (Sigma-Aldrich, St Louis, USA) was added just before use. Cellular fragments were removed by centrifugation at 12,000× g for 10 min at 4 °C, and total protein concentration was determined by Bradford assay. The cellular protein extracts were boiled at 95 °C for 5 min in Laemmli buffer and separated by sodium dodecyl sulfate–polyacrylamide gel electrophoresis in 15% polyacrylamide gels. Proteins were transferred onto polyvinylidene difluoride (PVDF) membranes by electro-blotting with constant amperage (1 mA/cm^2) for 2 h in a wet chamber. After blocking for 1 h in 5% bovine serum albumin (BSA) Tris-buffered saline containing Tween 20 at room temperature, membranes were incubated overnight at 4 °C with antibodies to Bax (Santa Cruz Biotechnology, 1:500), Bcl-2 (Santa Cruz Biotechnology, 1:500) and glyceraldehyde-3-phosphate dehydrogenase (GAPDH, Abcam, 1:2000). After washing, membranes were probed with their corresponding secondary antibody conjugated to horseradish peroxidase for 1 h at room temperature. Specific proteins were detected using the enhanced chemiluminescence (ECL) substrate kit (Clarity Western ECL substrate, Bio-Rad, Hercules, California, USA) and the blots were imaged with the C-DiGit LI-COR blot scanner (Bonsai Advanced technologies S.L. Madrid, Spain). Intensities of target protein bands were determined by densitometry and normalized to the intensity of the loading control GAPDH protein.
(Immunoblotting shows a protein as a band on a membrane.)

One may read the IC50 as the point on the concentration scale where inhibition reaches its midpoint.

The structures appear in SMILES notation. Where only a bound is given, the exact number is not on record here.

For the molecule `Oc1ccc([C@H]2c3c(O)cc(O)cc3[C@H]3c4c(cc(O)cc4[C@@H]2c2cc(/C=C/c4cc(O)cc5c4[C@H](c4cc(O)cc(O)c4)[C@@H](c4ccc(O)cc4)O5)ccc2O)O[C@@H]3c2ccc(O)cc2)cc1` [R2-Viniferin], the IC50 in assay [1] (24 h) is over 200 µM; in assay [1] (48 h) it was over 200 µM; in assay [1] (72 h), over 200 µM; in assay [3] (72 h), 47.8 ± 2.8 µM; in assay [3] (Homo sapiens, Hep3B, 24 h) it was over 200 µM; in assay [3] (Homo sapiens, Hep3B, 48 h) it was 43.9 ± 3.6 µM. The IC50 in assay [3] (Homo sapiens, Hep3B, 72 h) was 48 µM. Moreover, the “Effect on cell cycle” value in assay [2] is “did not alter cell cycle”. For the same molecule, the “Cell cycle G0/G1 (percentage of cells)” value was 63.6 ± 8.0% in assay [2] (24 h), 73.7 ± 3.4% in assay [2] (48 h) and 75.5 ± 3.9% in assay [2] (72 h). In addition, the “Cell cycle G2/M (percentage of cells)” value is recorded as 20.7 ± 6.1% in assay [2] (24 h), 16.5 ± 2.0% in assay [2] (48 h) and 14.7 ± 2.9% in assay [2] (72 h). Besides, the “Cell cycle S (percentage of cells)” value in assay [2] (24 h) is on record as 15.7 ± 3.7%; in assay [2] (48 h), 10.4 ± 1.6%; in assay [2] (72 h), 9.8 ± 1.2%. In addition, the “SubG0 (percentage of total cells)” value in assay [2] (24 h) is given as 2.0 ± 0.6%; in assay [2] (48 h), 1.8 ± 0.4%; in assay [2] (72 h), 3.3 ± 0.7%. In addition, the “Bax/Bcl-2 ratio increase over control” value is 39% in assay [4] (HepG2, 5 µM) and 123% in assay [4] (HepG2, 10 µM). In assay [4] (HepG2, 5 and 10 µM), the “Expression of anti-apoptotic Bcl-2 proteins” value was “downregulated”. Further, the “Expression of proapoptotic Bax protein” value in assay [4] (HepG2, 5 and 10 µM) is on record as “upregulated”.
